System: BMDM, BMDC or AM cells
Experiment: Real time RT-PCR of type I IFN and other inflammatory response genes
Type: cell-based, C57BL/6 mouse
Conditions: 100 nM cGAMP, 4 h
Method: Real time RT-PCR of type I IFN and other inflammatory response genes induced by NP-cGAMP. BMDM, BMDC or AM cells […] were seeded into 6-well plates and cultured for 24 h. The cells were then incubated at 37° C. with free cGAMP or NP-cGAMP (100 nM cGAMP) suspended in complete culture medium for 4 h. All cellular RNA was collected using TRIzol reagent (Thermo Fisher). One microgram of total RNA was transcribed into cDNA using High-Capacity cDNA Reverse Transcription Kit (Thermo Fisher), and real-time quantitative PCR (qPCR) was performed using PowerUp SYBR Green Master Mix (Thermo Fisher) with primers for amplification of Gapdh, Ifnb1, Cxcl9, Cxcl10, Tnf, Il6, Il12b, Il1b, Ifna1, Il10, and Tgfb1 genes. mRNA levels were normalized against the housekeeping gene GAPDH.

Compound: Nc1nc2c(ncn2[C@@H]2O[C@@H]3COP(=O)(O)O[C@H]4[C@@H](O)[C@H](n5cnc6c(N)ncnc65)O[C@@H]4COP(=O)(O)O[C@@H]2[C@@H]3O)c(=O)[nH]1 [free cGAMP, cyclic [G(2′,5′)pA(3′,5′)p]]
- expression of Ifnb1, Ifna1 and other proinflammatory genes (Tnf, Il1b, Il6, Il12b, Cxcl9,10): only a modest increase

From patent US12667585B2, “Immunotherapeutic nanoparticles and methods relating thereto” (Wake Forest University Health Sciences, priority 2019, dated 2026)
